Patent US5389655A, “Phenylfuroxans” (Cassella AG, priority 1992, dated 1995)
Where a name gives a salt, the structure may show the parent alone. Read-outs that look alike come from different tables or passages of the source.

System: pulmonary artery of the guinea-pig
Assay: relaxation of guinea-pig potassium-depolarised pulmonary artery strips (inhibition of CaCl2-induced contraction)
Details: Cavia porcellus, read-out: IC50 (concentration of the test substance which inhibits the contraction by 50%)
Source text: As a guanylate cyclase activator, nitrogen monoxide leads to an increase in cyclic guanosine monophosphate, which causes a relaxation in the smooth muscle and antiadhesive and antiaggregatory actions in the blood platelets. Nitrogen monoxide is additionally crucially involved in learning processes, in the regulation of the kidney function, in immune defence, in septic shock and in erectile dysfunctions. […] In this method, spiral strips of the pulmonary artery of the guinea-pig are depolarised using 40 mmol/l potassium after equilibration in calcium-free Tyrode solution. An addition of 0.5 mmol/l of CaCl2 then induces a contraction.

[1] = spiral strips depolarised with 40 mmol/l potassium, contraction by 0.5 mmol/l CaCl2, cumulative addition, average of 4 to 6 vessel strips

Compound	IC50 [1]	IC50
O=[N+]([O-])O[C@@H]1CO[C@H]2[C@@H]1OC[C@@H]2O [Isosorbide-5-mononitrate, reference compound]	–	> 100000 nM
COC(=O)C[S+]([O-])c1no[n+]([O-])c1-c1ccccc1 (stereo not shown) [Compound 2, 3-Phenyl-4-(methoxycarbonylmethylsulphinyl)-1,2,5-oxadiazole-2-oxide]	3000 nM	–
CN(CCOc1no[n+]([O-])c1-c1ccccc1)Cc1ccccc1 [Compound 6, 3-Phenyl-4-(2-(N-benzyl-N-methylamino)ethoxy)-1,2,5-oxadiazole-2-oxide hydrochloride]	4000 nM	–
CCOC(=O)[N-]c1cn(N2CCOCC2)n[o+]1 [Molsidomine, reference compound]	300000 nM	–

The remaining compounds from weak to strong by IC50 [1], led by results:

IC50 [1]	Compound	IC50
3000 nM	[O-][n+]1onc(OCc2cccnc2)c1-c1ccccc1 [Compound 12, 3-Phenyl-4-(pyrid-3-ylmethoxy)-1,2,5-oxadiazole-2-oxide]	–
2000 nM	NC(=O)C[S+]([O-])c1no[n+]([O-])c1-c1ccccc1 (stereo not shown) [Compound 19, 3-Phenyl-4-(aminocarbonylmethylsulphinyl)-1,2,5-oxadiazole-2-oxide]	–
700 nM	CCN(CC)CCS(=O)(=O)c1no[n+]([O-])c1-c1ccccc1 [Compound 5, 3-Phenyl-4-(2-diethylaminoethylsulphonyl)-1,2,5-oxadiazole-2-oxide]	–
300 nM	O=S(=O)(CCO)c1no[n+]([O-])c1-c1ccccc1 [Compound 10, 3-Phenyl-4-(2-hydroxyethylsulphonyl)-1,2,5-oxadiazole-2-oxide]	–
50 nM	CCS(=O)(=O)c1no[n+]([O-])c1-c1ccccc1 [Compound 20, 3-Phenyl-4-ethylsulphonyl-1,2,5-oxadiazole-2-oxide]	–
30 nM	CCCCS(=O)(=O)c1no[n+]([O-])c1-c1ccccc1 [Compound 9, 3-Phenyl-4-butylsulphonyl-1,2,5-oxadiazole-2-oxide]	–
